Experimental data as given in US20230255934A1, “NURR1 RECEPTOR MODULATORS AND USES THEREOF” (The Regents of the University of California, priority 2020, published 2023).
“Also recorded” adds a separate entry of the source.

What was measured:
[1] = test system: Nurr1 (siRNA knockdown) in MN9D cells; experiment: Nurr1 knockdown (siRNA) assay with qPCR of target genes in MN9D cells; format: cell-based, mouse; settings: 10 μM, 24 h, Nurr1 siRNA vs control siRNA
Protocol: Nurr1 knockdown (siRNA) assays were completed according to standard protocols. Briefly, MN9D cells were resuspended in DMEM/F-12 with 5% FBS at 1·10^6 cells/mL, and reverse-transfected with either control or Nurr1 siRNAs (40 nM final concentration) by combining 4 mL of cell suspension with 1 mL of Opti-MEM containing 200 nM siRNA and 10 μL Lipofectamine 2000 (Invitrogen, cat #:11668019). The resulting cell suspension was plated on poly-D-lysine treated six-well plates at 2.5 mL/well, and allowed to incubate for 24 h at 37° C., in 5% CO2 incubator. After 24 hours, the cells were trypsinized, resuspended in DMEM/F-12 with 5% FBS at 2·10^5 cells/mL, mixed with equal volume of 20 μM 5-chloroindole in the same media containing 0.2% DMSO (prepared by diluting DMSO stock of 5-chloroindole (10 mM) in warm DMEM/F-12 with 5% FBS; for the DMSO control an equivalent volume of DMSO was used instead of the compound stock), and immediately re-plated on poly-D-lysine pre-treated 24-well plates at 1-10^5 cells/well and incubated as above. After 24 hours, total RNA was isolated and the target gene transcription assay (qPCR) was performed as described above. Nurr1 siRNA N1 were purchased from Sigma (Cat No. SASI_Mm02_00322368), and the sequences were as follows: 5′-GAA UCA GCU UUC UUA GAA U[dT][dT]-3′ (SEQ ID NO:17) (sense) and 5′-AUU CUA AGA AAG CUG AUU C[dT][dT]-3′ (SEQ ID NO:18) (antisense). […]

[2] = target: T1, Nurr1-LBD_Gal4-DBD chimeric protein (Homo sapiens, UniProt P43354); experiment: Nurr1-LBD_Gal4-DBD luciferase reporter assay in MN9D cells; format: cell-based; settings: 6 h treatment
T1 construct: prepared by subcloning the Nurr1 LBD fragment into […] plasmid (Clontech) containing GAL4 DBD; expressed in transfected cells; host or cells: MN9D TET-ON cells
Protocol: Luciferase Reporter Assays. These assays were executed using standard protocols. MN9D TET-ON cells (P5) were grown for 60-72 h (see above) before being seeded at 1-10^5 cell/well in 24-well plate in DMEM/F12+5% TET-ON approved FBS 3 h before transfection. Cells were transfected using Lipofectamine 2000 (Invitrogen) and plasmid DNAs according to manufacturer's instructions. Lipofectamine/DNA complexes were prepared in Opti-Mem medium (Gibco) and incubated with cells overnight. The Nurr1-LBD_Gal4-DBD expressing plasmid was prepared by subcloning the Nurr1 LBD fragment into […] plasmid (Clontech) containing GAL4 DBD. […] Transfected cells were treated with increasing concentrations of 5-chloroindole or vehicle only for 6 h, after which time the media was aspirated and luciferase activity was measured. […] Resulting solutions were transferred to a white opaque 96-well plate (65 μL/well; 3 wells/sample) and firefly luciferase activity was measured using Veritas Microplate Luminometer (Turner BioSystems, Sunnyvale, Calif.). […] Renilla luciferase activity was measured after 20 min of incubation of the plate inside the luminometer. Experimental values are expressed as the average of firefly/renilla luciferase activity±standard deviation (for three independent biological replicates). […]

[3] = Dynamic light scattering assay of nano-aggregation; format: physicochemical; settings: MST buffer with Pluronic F127
Protocol: Measurements were made using a DynaPro MS/X (Wyatt Technology) with a 55 mW laser at 826.6 nm, using a detector angle of 90°. The laser power was 100%, and the acquisition time was 2 s. Histograms represent the average of three independent data sets, each with at least 10 measurements.

T1 sequence (P43354 360-595 limits assumed, change not shown): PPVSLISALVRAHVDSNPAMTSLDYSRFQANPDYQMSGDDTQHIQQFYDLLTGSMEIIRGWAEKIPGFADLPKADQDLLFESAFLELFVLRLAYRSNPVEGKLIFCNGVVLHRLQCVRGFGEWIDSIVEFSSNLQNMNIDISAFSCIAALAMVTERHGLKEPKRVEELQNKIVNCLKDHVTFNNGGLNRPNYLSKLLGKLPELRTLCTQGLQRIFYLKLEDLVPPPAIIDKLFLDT

SMILES: Clc1ccc2[nH]ccc2c1 [5-chloroindole]
- Effect on expression of Th and Vmat2 with knockdown of Nurr1 [1]: significantly reduced in the presence of Nurr1 siRNA, but not control siRNA; also recorded: inhibited by siRNA specific for Nurr1
- Luciferase production, Nurr1-LBD_Gal4-DBD reporter [2]: stimulates production of luciferase; also recorded: stimulates the activity of Nurr1
- Nano-aggregation properties [3]: minimal
